Measured values published in the NIST ThermoML archive (doi:10.1016/j.tca.2006.01.020).

Experiment: molar heat capacity at constant pressure
Conditions: 101.33 kPa, Crystal, Small (less than 1 g) adiabatic calorimetry

[Ba+2].[O-2].[O-2].[O-2].[Zr+4] [barium zirconium(IV) oxide]
Conditions	molar heat capacity at constant pressure [J/K/mol]
1.659 K	0.00346
1.662 K	0.00357
1.664 K	0.00348
1.666 K	0.00351
1.671 K	0.00353
1.675 K	0.00351
1.677 K	0.00363
1.683 K	0.00349
1.689 K	0.00342
1.699 K	0.00335
1.722 K	0.00326
1.735 K	0.00341
1.744 K	0.00345
1.763 K	0.00333
2.098 K	0.00292
2.107 K	0.00345
2.124 K	0.00373
2.15 K	0.0036
2.163 K	0.00346
2.173 K	0.00343
2.185 K	0.00389
2.198 K	0.00355
2.209 K	0.00288
2.216 K	0.00344
2.228 K	0.00346
2.261 K	0.00391
2.281 K	0.0035
2.325 K	0.00371
2.372 K	0.0038
2.389 K	0.00365
2.42 K	0.00384
2.515 K	0.00414
2.651 K	0.00484
2.824 K	0.00516
2.831 K	0.00564
2.919 K	0.00559
2.952 K	0.00633
3.106 K	0.00618
3.116 K	0.00718
3.242 K	0.00714
3.366 K	0.00794
3.538 K	0.00865
3.656 K	0.00903
3.873 K	0.00964
3.987 K	0.0104
4.096 K	0.0108
4.199 K	0.0112
4.473 K	0.0129
4.617 K	0.0156
4.702 K	0.0156
4.777 K	0.0158
4.851 K	0.0176
4.929 K	0.0183
5.008 K	0.02
5.086 K	0.019
5.165 K	0.021
5.246 K	0.0226
5.329 K	0.0234
5.41 K	0.0243
5.489 K	0.0216
5.545 K	0.0289
5.64 K	0.0269
5.717 K	0.0288
5.79 K	0.0301
5.87 K	0.0306
5.93 K	0.0325
6.02 K	0.0336
6.08 K	0.0338
6.19 K	0.0357
6.27 K	0.0366
6.36 K	0.0388
6.45 K	0.0407
6.54 K	0.0424
6.62 K	0.044
6.72 K	0.0458
6.8 K	0.0494
6.9 K	0.0501
6.98 K	0.0511
7.08 K	0.0539
7.16 K	0.0547
7.26 K	0.0547
7.36 K	0.0593
7.47 K	0.0629
7.56 K	0.0638
7.67 K	0.0662
7.77 K	0.07
7.89 K	0.0767
7.98 K	0.076
8.1 K	0.0841
8.2 K	0.083
8.32 K	0.091
8.43 K	0.0913
8.55 K	0.101
8.67 K	0.102
8.8 K	0.112
8.91 K	0.111
9.05 K	0.127
9.12 K	0.121
9.26 K	0.138
9.33 K	0.13
9.47 K	0.148
9.6 K	0.144
9.75 K	0.163
9.88 K	0.159
10 K	0.168
10.01 K	0.17
10.18 K	0.188
10.31 K	0.186
10.47 K	0.208
10.6 K	0.205
10.76 K	0.228
10.94 K	0.235
11.09 K	0.245
11.27 K	0.27
11.45 K	0.278
11.62 K	0.29
11.8 K	0.317
12 K	0.341
12.15 K	0.34
12.35 K	0.385
12.54 K	0.383
12.72 K	0.416
12.92 K	0.449
13.12 K	0.466
13.32 K	0.5
13.53 K	0.54
13.73 K	0.561
13.93 K	0.599
14.13 K	0.628
14.34 K	0.692
14.54 K	0.702
14.75 K	0.772
14.97 K	0.803
15.18 K	0.858
15.39 K	0.892
15.59 K	0.951
15.81 K	1.02
16.03 K	1.06
16.24 K	1.13
16.46 K	1.2
16.68 K	1.25
16.9 K	1.32
17.12 K	1.4
17.34 K	1.46
17.56 K	1.54
17.79 K	1.63
18.03 K	1.72
18.26 K	1.77
18.47 K	1.87
18.69 K	1.97
18.92 K	2.07
19.15 K	2.15
19.38 K	2.27
19.62 K	2.37
19.86 K	2.44
20 K	2.564
20.07 K	2.59
20.32 K	2.69
20.56 K	2.75
20.77 K	2.91
21 K	3.03
21.25 K	3.1
21.47 K	3.28
21.71 K	3.37
21.95 K	3.48
22.17 K	3.66
22.41 K	3.78
22.67 K	3.87
22.9 K	3.98
23.11 K	4.17
23.34 K	4.32
23.59 K	4.41
23.83 K	4.56
24.06 K	4.76
24.31 K	4.87
24.56 K	4.97
24.78 K	5.12
25 K	5.34
25.24 K	5.49
25.5 K	5.6
25.74 K	5.74
25.96 K	5.93
26.19 K	6.12
26.44 K	6.29
26.7 K	6.36
26.94 K	6.51
27.15 K	6.76
27.39 K	6.91
27.68 K	6.91
27.72 K	7.04
28.07 K	7.4
28.32 K	7.57
28.59 K	7.63
28.82 K	7.79
29.03 K	8.03
29.26 K	8.25
30 K	8.651
30.07 K	8.73
30.34 K	8.73
30.45 K	8.93
31.03 K	9.36
31.64 K	9.8
32.28 K	10.4
32.94 K	10.9
33.63 K	11.4
34.33 K	11.9
35.05 K	12.4
35.78 K	13
36.53 K	13.5
37.28 K	14.1
38.03 K	14.7
38.8 K	15.3
39.58 K	15.9
40 K	16.19
40.37 K	16.4
41.18 K	17.1
42 K	17.7
42.84 K	18.3
43.69 K	19
44.56 K	19.6
45.45 K	20.2
46.36 K	21
47.29 K	21.6
48.24 K	22.3
49.21 K	23
50 K	23.59
50.25 K	23.7
51.26 K	24.4
52.27 K	25.2
53.27 K	25.9
54.27 K	26.6
55.27 K	27.3
56.27 K	28.1
57.27 K	28.8
58.26 K	29.5
59.25 K	30.2
60 K	30.79
60.25 K	31
61.24 K	31.6
62.3 K	32.5
63.25 K	33.2
64.23 K	33.8
65.21 K	34.5
66.2 K	35.2
67.19 K	35.9
68.19 K	36.2
69.19 K	36.9
70 K	37.33
71.18 K	38.3
72.18 K	38.8
73.19 K	39.5
74.19 K	40
75.18 K	40.7
76.18 K	41.3
77.18 K	42
78.18 K	42.5
79.18 K	43.1
80 K	43.22
80.18 K	43.6
81.18 K	44.3
82.18 K	44.7
83.18 K	45.1
84.17 K	45.7
85.17 K	46.3
86.17 K	46.7
87.17 K	47.2
87.74 K	46.8
89.5 K	48.5
90 K	48.58
91.29 K	49.3
93.12 K	50.1
94.99 K	51.3
96.9 K	52.1
98.84 K	52.7
100 K	53.49
100.82 K	53.7
102.81 K	54.6
104.8 K	55.6
106.79 K	56.6
108.78 K	57.5
110.77 K	58.4
112.76 K	59.4
114.75 K	60.3
116.74 K	61.2
118.72 K	62
120 K	62.3
120.69 K	62.8
122.66 K	63.7
124.65 K	64.5
126.64 K	65.3
128.63 K	66.1
130.62 K	66.8
132.27 K	67.5
133.6 K	68
134.94 K	68.5
136.28 K	69
137.64 K	69.5
139.02 K	70
140 K	70.04
140.41 K	70.1
141.81 K	70.6
143.23 K	71.1
144.66 K	71.7
146.11 K	72.2
147.57 K	72.7
149.04 K	73.2
150.53 K	73.9
152.03 K	74.3
153.55 K	74.9
155.09 K	75.3
156.64 K	75.9
158.2 K	76.3
159.79 K	76.9
160 K	76.91
161.38 K	77.3
163 K	77.9
164.63 K	78.4
166.26 K	78.9
167.93 K	79.4
169.61 K	79.9
171.3 K	80.4
173.01 K	81
174.74 K	81.4
176.49 K	82
178.25 K	82.3
180 K	82.99
180.03 K	83
181.83 K	83.5
183.65 K	84.1
185.48 K	84.7
187.34 K	85.1
189.21 K	85.5
191.1 K	86.2
193 K	86.7
194.93 K	87
196.88 K	87.9
198.84 K	88
200 K	88.29
200.83 K	88.7
202.81 K	89
204.8 K	89.7
206.78 K	90.5
208.76 K	90.8
210.75 K	91.3
212.73 K	92.4
214.71 K	91.7
216.7 K	92.1
218.69 K	92.5
220 K	92.87
220.66 K	93
222.65 K	93.4
224.62 K	94
226.6 K	94.3
228.58 K	94.9
230.56 K	95.7
232.54 K	95.8
234.52 K	95.9
236.49 K	96.5
238.47 K	96.6
240 K	96.81
240.44 K	97.1
242.41 K	97.6
244.39 K	97.6
246.36 K	98.4
248.33 K	98.2
250.31 K	98.9
252.27 K	99.4
254.25 K	99.7
256.22 K	99.7
258.19 K	99.8
260 K	100.3
260.16 K	100.3
262.12 K	100.7
264.08 K	100.7
266.04 K	101.8
268.01 K	102.2
269.99 K	101.6
271.94 K	102.6
273.9 K	103
275.86 K	103.2
277.83 K	103.3
279.79 K	103.8
280 K	103.7
281.74 K	104.6
283.71 K	105.2
285.68 K	105
287.63 K	105
289.59 K	105.2
291.54 K	107
293.51 K	106.2
295.49 K	107.4
297.42 K	106.6
298.15 K	107
299.39 K	106.6
300 K	107.4
301.32 K	107.9
